In patent publication JP2008297320A (priority 2000, dated 2001):

Assay: Test Example 2: persistence of Compound B concentration in mouse lung tissue (14C-labelled compounds)
Assay type: in vivo
Details: Balb/C mice (female), up to 72 h
[1] = intranasal 14C-labelled Compound A 0.3 and 1 μmol/kg

SMILES	conversion of Compound A (ester derivative) to Compound B (active form) [1]	persistence of Compound B (active form) concentration in lung tissue after administration of Compound A [1]	disappearance of Compound B from lung tissue (intranasal 14C-labelled Compound B 4 μmol/kg)
CCCCCCCC(=O)OC[C@@H](O)[C@@H](OC)[C@@H]1OC(C(=O)O)=C[C@H](NC(=N)N)[C@H]1NC(C)=O [化合物A, 5-アセタミド-4-グアニジノ-9-O-オクタノイル-2、3、4、5-テトラデオキシ-7-メトキシ-D-グリセロ-D-ガラクト-ノン-2-エノピラソン酸]	速やかに変換される	長期にわたり持続した	
CO[C@@H]([C@@H]1OC(C(=O)O)=C[C@H](NC(=N)N)[C@H]1NC(C)=O)[C@H](O)CO [化合物B, 5-アセタミド-4-グアニジノ-2、3、4、5-テトラデオキシ-7-メトキシ-D-グリセロ-D-ガラクト-ノン-2-エノピラソン酸, reference compound]			速やかに肺組織から消失した
